Values quoted from earlier work in patent US20230000917A1, “TREATMENT OF HEPATITIS B VIRUS (HBV) INFECTION” (UCL BUSINESS LTD, priority 2019, published 2023).

Columns and labels:
[1] = in vivo
[2] = in vivo; remark: listed apart in the source
[3] = test system: macrophage foam cell formation and atherosclerosis progression; conditions: oral administration, animal models

Compound	oral bioavailability [1]	plasma VLDL-cholesterol [2]	plasma total triglyceride [2]	macrophage foam cell formation and atherosclerosis progression [3]
CC(C)c1cc(C(C)C)c(CC(=O)NS(=O)(=O)Oc2c(C(C)C)cccc2C(C)C)c(C(C)C)c1 [Avasimibe]	orally bioavailable	significantly reduce	significantly reduce	
CSc1cc(C)nc(SC)c1NC(=O)CN1CCN(CCSc2nc3ccccc3[nH]2)CC1.Cl.Cl [K604, 4-[2-(1H-Benzimidazol-2-ylthio)ethyl]-N-[6-methyl-2,4-bis(methylthio)-3-pyridinyl]-1-piperazineacetamide dihydrochloride]				promising results
